Assays:
HLA-A2 (A*0201) [1] = biological target: T1, HLA-A2 (A*0201) (Homo sapiens, UniProt P04439, D140Y/D185E/D98H/E176V/E277Q/G131W/G231S/I119V/I121R/I166T/I218V/L300P/L318F/N151K/N90K/P208A/P217A/Q86G/Q94H/R138H/R169H/T345S); assay: iTopia initial binding assay; conditions: Table 1
HLA-A2 (A*0201) [2] = biological target: T1, HLA-A2 (A*0201); assay: iTopia stability; conditions: Table 1
[3] = system: HLA-A2 transgenic (HHD) mice; assay: Peptide immunization of HHD mice, IFNγ intracellular staining of splenocytes; assay type: in vivo, mouse; conditions: for Average % CD8+IFNγ+ cells: group average, splenocytes stimulated with native peptide

Sequence | Initial binding, % pos control (HLA-A2 (A*0201) [1]) [% pos control] | Binding after 8 h incubation w/o free peptide, % pos control (HLA-A2 (A*0201) [2]) [% pos control] | MHC complex stability (T1/2) (HLA-A2 (A*0201) [2]) [h] | Average % CD8+IFNγ+ cells ([3]; HHD mice) [% CD8+IFNγ+ cells] | Fold higher native peptide-specific T-cell response with analog ([3]; analog vs. native peptide immunization, HHD mice) [fold] | Corresponding native peptide: CMIR, % CD8+IFNγ+ cells ([3]; HHD mice immunized with the native peptide, Table 1) [% CD8+IFNγ+ cells] | Corresponding native peptide: Fraction of responders ([3]; HHD mice immunized with the native peptide, responder > 0.1%, Table 1) | Range of individual mouse responses, % CD8+IFNγ+ cells ([3]; HHD mice, individual animals)
ALCRWGLLV [H.5.V9] | 72.3 | 33.9 | 6.2 | – | – | – | – | –
ALVGILLVVV [H.657(10).L2] | 13.8 | 17.8 | – | – | – | – | – | –
ALVGIMIGV [C.687.L2] | 73.7 | 76.2 | 26.3 | – | – | – | – | –
AVVGILLVV [H.657] | 20.6 | 12.0 | 8.6 | – | – | – | – | –
FLDLQVNSL [T.986] | 69.5 | 54.5 | 7.8 | – | – | – | – | –
FLHWLMSVYV [T.544] | 48.0 | 74.4 | 40.0 | – | – | – | – | –
FLVDDFLLV [T.865.F1] | 88.4 | 76.2 | 13.2 | > 0.1 | 1.9 | – | – | –
ILAKFLHWLM [T.540(10)] | – | – | – | – | – | 0.06 | 1/5 | –
ILAKFLHWLV [T.540(10).V10] | 99.8 | 88.8 | 16.8 | > 0.1 | – | – | – | –
KLFGSLAFL | 79.7 | 114.9 | 40.0 | – | – | – | – | –
LLDTRTLEV [T.934] | 80.2 | 66.3 | 21.6 | – | – | – | – | –
RLTVTTITV [C.310.L2] | 61.2 | 64.4 | 25.4 | – | – | – | – | 3.0–14.3%
VVLGVVFGV [H.665.V9] | 65.8 | 72.7 | 40.0 | – | – | – | – | –
YLSGANLNV [C.605.V9] | 73.2 | 78.5 | 27.4 | – | – | – | – | –

— paper PMC3518498 (Oncoimmunology, 2012)
